Data: patent US20100285959A1, “HERBICIDAL MIXTURES” (priority 2006, published 2010)

Assays:
giant ragweed (AMBTR) = test: Test 26 field trial, postemergence; type: in vivo, Ambrosia trifida
Source text: Corn seeds (hybrid ‘Pioneer 31G96’) were planted in mid spring season, 3.8 cm deep in a silt loam soil having 2% organic matter and a pH of 6.6. Plots were 6.1 m long by 3.0 m wide with rows spaced 76 cm apart. Seeds were spaced 15 cm apart within the rows. The field was managed using conventional tillage practices. […] All treatments also included a surfactant. […] Some of the weed species could not be evaluated at every timing. […] Results are the means of the three replicates.

spring wheat (TRZAS) = test: Test 4 field trial, postemergence
Experimental: A field trial was conducted to evaluate the effects of mixtures of Compound 2 with commercial herbicides on spring wheat (TRZAS, Triticum aestivum L.) and several weed species. Wheat seeds (cv. ‘AC Intrepid’) were planted in late spring season, 3.8 cm deep in a loam soil having 2.7% organic matter and a pH of 7. Plots were 6 m long by 2.5 m wide. The field was managed using no-till practices. The plots were arranged in a randomized complete block design with each treatment being replicated four times. Treatments were applied postemergence 25 days after planting using a backpack sprayer delivering a spray volume of 55 L/ha using a pressure of 276 kPa. […] Compound 2 and clodinafop treatments, alone and in combination, also included a surfactant. Weed species present in the experimental plots in sufficient quantity to be evaluated included wild oat (AVEFA, Avena fatua L.), common lambsquarters (CHEAL, Chenopodium album L.), kochia (KCHSC, Kochia scoparia (L.) Schrad.), wild buckwheat (POLCO, Polygonum convolvulus L.), Russian thistle (SASKR, Salsola kali L. ssp. ruthenica (Iljin) Soo), and field pennycress (THLAR, Thlaspi arvense L.). […] Common lambsquarters was evaluated only at 14 days after application. […] Results are the means of the four replicates.

velvetleaf (ABUTH) = test: Test 17 greenhouse, post- and preemergence; type: in vivo, Abutilon theophrasti; settings: 12 DAA
Source text: Plants were watered as needed.

wild buckwheat (POLCO) = test: Test 24 growth chamber, postemergence; type: in vivo, Polygonum convolvulus; settings: 17 DAA
Experimental: (§1) Plants were treated postemergence at the 2-4 leaf growth stage, and each treatment was replicated three times. […] Plants were watered as needed. […] Results for barley and wheat are the means across varieties of the three replicates, and results for the weeds are the means of the three replicates.

kochia (KCHSC) = test: Test 24 growth chamber, postemergence; type: in vivo, Kochia scoparia; settings: 17 DAA
Experimental: as §1

giant foxtail (SETFA) = test: Test 25 field trial, postemergence, growth as percent of control; type: in vivo, Setaria faberi
Source text: (§2) Corn seeds (hybrid ‘Pioneer 31G96 RR’) were planted in mid spring season, 3.8 cm deep in a clay loam soil having 2% organic matter and a pH of 6.6. Plots were 6.1 m long by 3.0 m wide with rows spaced 76 cm apart. Seeds were spaced 15 cm apart within the rows. The field was managed using conventional tillage practices. […] Giant ragweed and Pennsylvania smartweed could only be evaluated 14 days after application. […] Results are the means of the three replicates. This growth inhibition data was converted to results in the form of “plant growth as a percent of control plant growth” using the calculation “100 minus growth inhibition”.
(§3) When this form of Colby's Equation is used, if the observed effects on weeds are less than the expected values, the mixture is synergistic.

redroot pigweed (AMARE) = test: as above; type: in vivo, Amaranthus retroflexus
Source text: as §2, §3

COC(=O)c1nc(C2CC2)nc(N)c1Cl [Compound 2, methyl 6-amino-5-chloro-2-cyclopropyl-4-pyrimidinecarboxylate]
AMBTR Obs (giant ragweed (AMBTR); 14 DAA, 30 g a.i./ha): 97 | AMBTR Obs (giant ragweed (AMBTR); 28 DAA, 30 g a.i./ha): 100 | AMBTR Obs (giant ragweed (AMBTR); 28 DAA, 45 g a.i./ha): 100 | AMBTR Obs (giant ragweed (AMBTR); 28 DAA, 60 g a.i./ha): 100 | TRZAS Obs (spring wheat (TRZAS); 14 DAA, Cpd 2 30 g a.i./ha alone or with clodinafop 56 or fenoxaprop 90): 0 | TRZAS Obs (spring wheat (TRZAS); 14 DAA, Cpd 2 60 g a.i./ha alone or with clodinafop 56 or fenoxaprop 90): 0 | TRZAS Obs (spring wheat (TRZAS); 35 DAA, Cpd 2 30 g a.i./ha alone or with clodinafop 56 or fenoxaprop 90): 2 | TRZAS Obs (spring wheat (TRZAS); 35 DAA, Cpd 2 60 g a.i./ha alone or with clodinafop 56 or fenoxaprop 90): 6 | TRZAS Obs (spring wheat (TRZAS); 55 DAA, Cpd 2 30 g a.i./ha alone or with clodinafop 56 or fenoxaprop 90): 3 | TRZAS Obs (spring wheat (TRZAS); 55 DAA, Cpd 2 60 g a.i./ha alone or with clodinafop 56 or fenoxaprop 90): 11 | Obs response, scale 0 to 100 (velvetleaf (ABUTH); Postemergence, 15 g a.i./ha): 29 | Obs response, scale 0 to 100 (velvetleaf (ABUTH); Postemergence, 30 g a.i./ha): 30 | Obs response, scale 0 to 100 (velvetleaf (ABUTH); Postemergence, 45 g a.i./ha): 45 | Obs response, scale 0 to 100 (velvetleaf (ABUTH); Preemergence, 15 g a.i./ha): 10 | Obs response, scale 0 to 100 (velvetleaf (ABUTH); Preemergence, 30 g a.i./ha): 24 | Obs response, scale 0 to 100 (velvetleaf (ABUTH); Preemergence, 45 g a.i./ha): 45 | POLCO Obs (scale 0 to 100) (wild buckwheat (POLCO); Cpd 2 4 g a.i./ha): 55 | POLCO Obs (scale 0 to 100) (wild buckwheat (POLCO); Cpd 2 8 g a.i./ha): 60 | POLCO Obs (scale 0 to 100) (wild buckwheat (POLCO); Cpd 2 16 g a.i./ha): 70 | KCHSC Obs (scale 0 to 100) (kochia (KCHSC); Cpd 2 4 g a.i./ha): 65 | KCHSC Obs (scale 0 to 100) (kochia (KCHSC); Cpd 2 8 g a.i./ha): 77 | KCHSC Obs (scale 0 to 100) (kochia (KCHSC); Cpd 2 16 g a.i./ha): 88 | SETFA Obs (percent of control) (giant foxtail (SETFA); Cpd 2 15 g a.i./ha, 14 DAA): 93% | SETFA Obs (percent of control) (giant foxtail (SETFA); Cpd 2 15 g a.i./ha, 28 DAA): 98% | SETFA Obs (percent of control) (giant foxtail (SETFA); Cpd 2 15 g a.i./ha, 56 DAA): 100% | SETFA Obs (percent of control) (giant foxtail (SETFA); Cpd 2 30 g a.i./ha, 14 DAA): 85% | SETFA Obs (percent of control) (giant foxtail (SETFA); Cpd 2 30 g a.i./ha, 28 DAA): 88% | SETFA Obs (percent of control) (giant foxtail (SETFA); Cpd 2 30 g a.i./ha, 56 DAA): 80% | SETFA Obs (percent of control) (giant foxtail (SETFA); Cpd 2 45 g a.i./ha, 14 DAA): 73% | SETFA Obs (percent of control) (giant foxtail (SETFA); Cpd 2 45 g a.i./ha, 28 DAA): 80% | SETFA Obs (percent of control) (giant foxtail (SETFA); Cpd 2 45 g a.i./ha, 56 DAA): 83% | AMARE Obs (percent of control) (redroot pigweed (AMARE); Cpd 2 15 g a.i./ha, 14 DAA): 47% | AMARE Obs (percent of control) (redroot pigweed (AMARE); Cpd 2 15 g a.i./ha, 28 DAA): 38% | AMARE Obs (percent of control) (redroot pigweed (AMARE); Cpd 2 15 g a.i./ha, 56 DAA): 0% | AMARE Obs (percent of control) (redroot pigweed (AMARE); Cpd 2 30 g a.i./ha, 14 DAA): 35% | AMARE Obs (percent of control) (redroot pigweed (AMARE); Cpd 2 30 g a.i./ha, 28 DAA): 22% | AMARE Obs (percent of control) (redroot pigweed (AMARE); Cpd 2 30 g a.i./ha, 56 DAA): 0% | AMARE Obs (percent of control) (redroot pigweed (AMARE); Cpd 2 45 g a.i./ha, 14 DAA): 28% | AMARE Obs (percent of control) (redroot pigweed (AMARE); Cpd 2 45 g a.i./ha, 28 DAA): 20% | AMARE Obs (percent of control) (redroot pigweed (AMARE); Cpd 2 45 g a.i./ha, 56 DAA): 28%
